Results: US6596545B1, “Microdevices for screening biomolecules” (priority 1998, dated 2003)

Experiments:
Assay type in all cases: biochemical
[1] = target: L10R HIV protease variant (Human immunodeficiency virus type 1 group M subtype B, UniProt P04585, L498R); details: substrate Dns-SQNYPIVW, pH 5.5
Description: (§1) HIV protease variants, in the form of HIV-GST-K6, and GST-K6 are immobilized to the aminoreactive monolayer surface of the microchannel device (see Example 4, above). HIV-GST-K6 and GST-K6 are diluted to concentrations of 1 μg/ml in 25 mM HEPES buffer (pH 7.5) containing 150 mM NaCl. First, 50 μl of protein-free buffer is transferred through the channels to hydrate the monolayer surface. After 5 min of incubation, 10 μl of the corresponding protein solutions are flushed through the channels to guarantee total replacement with protein-containing solution. Immobilization is finished after 30 min at room temperature. The channels are rinsed with 50 μl immobilization buffer and subjected to analysis. […] Ultrapure water with a resistance of 18 MΩcm is generally used for all aqueous buffers (purified by passage through a Barnstead Nanopure® system).
(§2) HIV protease requires at least a heptapeptide substrate (Moore et al., Biochem. Biophys. Res. Commun., 1989, 159:420). To analyze the activity of the different HIV variants, a continuous assay based on intra-molecular fluorescence resonance energy transfer (FRET) is used. […] Excitation of Trp is at […], and emission of Dns is at 575 nm. Cleavage of the peptide at the Tyr-Pro bond reduces the Dns emission and increases Trp emission at 360 nm. The modified heptapeptide; Dns-[…] is prepared as described (Geoghegan et al.) and analyzed by amino acid analysis, nuclear magnetic resonance and mass spectrometry. The purity is checked by HPLC analysis using a Vydac C-4 column and an acetonitrile gradient in 0.1% TFA. In order to test the activity of all the HIV variants described above, each microchannel with an immobilized HIV variant (see Example 6) is filled with 20 μM of Dns-[…] in 50 mM sodium acetate, pH 5.5, 13% glycerol, 10 mM DTT. Addition of the substrate to the immobilized proteins leads to time-dependent intensity changes in the fluorescence emission spectrum. […] To control for changes in background fluorescence, GST-K6 fusion protein is measured in parallel.
(§3) Competition assays can be carried out to test the specificity of the proteolysis by the HIV variants.

[2] = target: HIV protease A71V variant (Human immunodeficiency virus type 1 group M subtype B, UniProt P04585, A559V/P588I); details: substrate Dns-SQNYPIVW, pH 5.5
Description: as §1, §2, §3

[3] = target: HIV protease V82F variant (Human immunodeficiency virus type 1 group M subtype B, UniProt P04585, V570F); details: substrate Dns-SQNYPIVW, pH 5.5
Description: as §1, §2, §3

[4] = target: HIV protease 184V variant (Human immunodeficiency virus type 1 group M subtype B, UniProt P04585, I572V/P588I); details: substrate Dns-SQNYPIVW, pH 5.5
Description: as §1, §2, §3

[5] = target: HIV protease M461 variant (Human immunodeficiency virus type 1 group M subtype B, UniProt P04585, M534I); details: substrate Dns-SQNYPIVW, pH 5.5
Description: as §1, §2, §3

[6] = target: HIV protease L63P variant (Human immunodeficiency virus type 1 group M subtype B, UniProt P04585, L551P); details: substrate Dns-SQNYPIVW, pH 5.5
Description: as §1, §2, §3

[7] = system: HIV variants (HIV protease variants, HIV-GST-K6); test: FRET protease activity assay in microchannels, immobilized HIV protease variants; details: all immobilized variants other than G48V or L90M; substrate Dns-SQNYPIVW 20 μM, pH 5.5
Description: HIV protease variants, in the form of HIV-GST-K6, and GST-K6 are immobilized to the aminoreactive monolayer surface of the microchannel device (see Example 4, above). HIV-GST-K6 and GST-K6 are diluted to concentrations of 1 μg/ml in 25 mM HEPES buffer (pH 7.5) containing 150 mM NaCl. First, 50 μl of protein-free buffer is transferred through the channels to hydrate the monolayer surface. After 5 min of incubation, 10 μl of the corresponding protein solutions are flushed through the channels to guarantee total replacement with protein-containing solution. Immobilization is finished after 30 min at room temperature. The channels are rinsed with 50 μl immobilization buffer and subjected to analysis. […]
HIV protease requires at least a heptapeptide substrate (Moore et al., Biochem. Biophys. Res. Commun., 1989, 159:420). To analyze the activity of the different HIV variants, a continuous assay based on intra-molecular fluorescence resonance energy transfer (FRET) is used. […] The modified heptapeptide; Dns-SQNYPIVW is prepared as described (Geoghegan et al.) and analyzed by amino acid analysis, nuclear magnetic resonance and mass spectrometry. […] Addition of the substrate to the immobilized proteins leads to time-dependent intensity changes in the fluorescence emission spectrum. […] To control for changes in background fluorescence, GST-K6 fusion protein is measured in parallel. […]

Row | SMILES | decrease of protease activity [1] | block of protease activity [2] | block of protease activity [3] | block of protease activity [4] | block of protease activity [5] | block of protease activity [6] | inhibition of HIV variants [7]
1 | CC(C)(C)NC(=O)[C@@H]1CN(Cc2cccnc2)CCN1C[C@@H](O)C[C@@H](Cc1ccccc1)C(=O)N[C@H]1c2ccccc2C[C@H]1O [Indinavir] | not able to decrease the activity | the A71V variant is not affected |  |  |  |  | 
2 | CC(C)c1nc(CN(C)C(=O)N[C@H](C(=O)N[C@@H](Cc2ccccc2)C[C@H](O)[C@H](Cc2ccccc2)NC(=O)OCc2cncs2)C(C)C)cs1 [Ritonavir] |  | unable to block the activity | unable to block the activity | unable to block the activity | unable to block the activity | unable to block the activity | 
3 | CC(C)(C)NC(=O)[C@@H]1C[C@@H]2CCCC[C@@H]2CN1C[C@@H](O)[C@H](Cc1ccccc1)NC(=O)[C@H](CC(N)=O)NC(=O)c1ccc2ccccc2n1 [Sequinavir] |  |  |  |  |  |  | will inhibit all the HIV variants except those containing either the G48V or the L90M mutation
